Assay results from US11667602B2, “Compounds and their use” (AstraZeneca AB, priority 2020, dated 2023).
In brackets after ≈: the same amount, converted by molar mass.

Assays:
[1] = Human Plasma Protein Binding (Test B); type: in vitro ADME; settings: fraction unbound (fu)
How it was run: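 Values given as % free (fu) in human plasma, using the method of Wernevik et al. (2020). For compounds tested more than once, the arithmetic mean is given.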

[2] = Human Liver Microsomal Stability (Test C); type: in vitro ADME; settings: human, liver microsomes
How it was run: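 CLint (μl/min/mg protein) derived from compound depletion in human liver microsomes following a published standardized early-DMPK protocol; replicate determinations given as arithmetic mean.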

[3] = Human Hepatocyte Stability (Test D); type: in vitro ADME; settings: human, cryopreserved pooled human hepatocytes (LiverPool 10-Donor), geometric mean if run multiple times
Method: Human Hepatocyte Stability (Test D)
The metabolic stability of compounds in human hepatocytes was assessed using the following protocol:
1. Prepare 10 mM stock solutions of compound and control compounds in appropriate solvent (DMSO). Place incubation medium (L-15 Medium) in a 37° C. water bath, and allow warming for at least 15 minutes prior to use.
2. Add 80 μL of acetonitrile to each well of the 96-well deep well plate (“Quenching plate”).
3. In a new 96-well plate, dilute the 10 mM test compounds and the control compounds to 100 μM by combining 198 μL of acetonitrile and 2 μL of 10 mM stock solution.
4. Remove a vial of cryopreserved (less than −150° C.) human hepatocytes (LiverPool™ 10-Donor Human hepatocytes obtained from Bioreclamation IVT (Product No. S01205)) from storage, ensuring that vials remain at cryogenic temperatures until thawing process ensues. As quickly as possible, thaw the cells by placing the vial in a 37° C. water bath and gently shaking the vials. Vials should remain in water bath until all ice crystals have dissolved and are no longer visible. After thawing is complete, spray vial with 70% ethanol, transfer the vial to a bio-safety cabinet.
5. Open the vial and pour the contents into the 50 mL conical tube containing thawing medium. Place the 50 mL conical tube into a centrifuge and spin at 100 g for 10 minutes (room temperature).
6. Using Cellometer® Vision, count cells and determine the viable cell density. Cells with poor viability (<80% viability) are not acceptable for use.
7. Transfer 247.5 μL of hepatocytes into each well of a 96-well cell incubation plate. Place the plate on Eppendorf Thermomixer Comfort plate shaker to allow the hepatocytes to warm for 10 minutes.
8. Add 2.5 μL of 100 μM test compound or control compounds into an incubation well containing cells to initiate the reaction.
9. Incubate the plate at 37° C. and 900 rpm on an Eppendorf Thermomixer Comfort plate shaker.
10. Centrifuge the quenching plates for 20 minutes at 4,000 rpm. Transfer 30 μL of supernatant of each compound into a 96-well analysis plate. 4 compounds are pooled together into one cassette. Then dilute the pooled sample by adding of 180 μl of pure water. All incubations are performed in singlicate.
All calculations were carried out using Microsoft Excel. Peak areas were determined from extracted ion chromatograms. In vitro intrinsic clearance (in vitro Clint, in μL/min/10^6 cells) of parent compound was determined by regression analysis of the Ln percent parent disappearance vs. time curve. The in vitro intrinsic clearance (in vitro Clint, in μL/min/10^6 cells) reported in Table 36, and was determined from the slope value using the following equation: in vitro Clint=kV/N
V=incubation volume (0.25 mL);
N=number of hepatocytes per well (0.25×10^6 cells)
Where the assay was run multiple times for the same compound, the geometric mean is reported.

[4] = Rat Hepatocyte Stability (Test E); type: in vitro ADME; settings: rat, hepatocytes, geometric mean if run multiple times
How it was run: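 Intrinsic clearance in rat hepatocytes, expressed as μl/min/10^6 cells, following the literature integrated DMPK panel method. Repeat determinations combined as geometric mean.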

Solubility (Test F) = type: physicochemical; settings: arithmetic mean if run multiple times
Method: The assay was conducted according to the Solubility Assay described in pages 164-167 of Wernevik, J. et al., “A Fully Integrated Assay Panel for Early Drug Metabolism and Pharmacokinetics Profiling”, Assay and Drug Development Technologies, 2020, 18(4), 157-179. Data are reported in Table 36 as solubility ([…]. Where the assay was run multiple times for the same compound, the arithmetic mean is reported.

human RXFP1 = target: T1, human RXFP1 (Homo sapiens, UniProt Q9HBX9); experiment: RXFP1 Hu cAMP (Test A); type: cell-based; design: expressed in transfected cells; host or cells: Jump-In T-REx CHO-K1 cells (ThermoFisher), induced with 10 ng/ml doxycycline for 24 h; settings: RXFP1 Hu cAMP; for EC50: read-out: Test A EC50
T1 sequence (Q9HBX9 1-757): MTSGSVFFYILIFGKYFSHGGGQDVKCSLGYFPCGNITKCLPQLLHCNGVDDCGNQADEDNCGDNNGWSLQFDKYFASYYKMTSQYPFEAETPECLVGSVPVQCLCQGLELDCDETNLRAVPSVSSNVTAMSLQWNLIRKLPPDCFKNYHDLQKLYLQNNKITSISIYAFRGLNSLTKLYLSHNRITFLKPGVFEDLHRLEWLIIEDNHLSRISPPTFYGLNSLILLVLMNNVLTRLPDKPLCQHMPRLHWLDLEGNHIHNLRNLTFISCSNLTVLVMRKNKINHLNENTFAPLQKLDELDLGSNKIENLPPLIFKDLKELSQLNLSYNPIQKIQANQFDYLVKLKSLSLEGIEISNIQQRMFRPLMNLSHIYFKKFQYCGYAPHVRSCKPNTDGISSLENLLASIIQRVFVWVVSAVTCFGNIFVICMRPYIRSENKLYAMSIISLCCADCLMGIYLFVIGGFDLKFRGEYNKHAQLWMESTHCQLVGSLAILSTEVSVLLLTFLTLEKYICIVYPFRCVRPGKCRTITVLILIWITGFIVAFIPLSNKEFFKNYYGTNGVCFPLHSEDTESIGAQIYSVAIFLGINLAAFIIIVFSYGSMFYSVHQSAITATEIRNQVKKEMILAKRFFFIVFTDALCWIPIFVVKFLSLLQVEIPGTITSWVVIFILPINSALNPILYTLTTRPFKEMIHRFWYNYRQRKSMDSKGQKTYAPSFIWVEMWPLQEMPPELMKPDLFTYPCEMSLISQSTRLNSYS
How it was run: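 Competitive HTRF cAMP readout (2 h, room temperature) in CHO-K1 cells stably expressing human RXFP1, induced with 10 ng/ml doxycycline for 24 h; IBMX 0.5 mM final.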

Structure (SMILES)	Test B Human Plasma Protein Binding (% free) [1] [% free]	microsomal CLint [2] [µL/min/mg]	hepatocyte CLint at 1 µM [3] [µL/min/1e6 cells]	hepatocyte CLint [4] [µL/min/1e6 cells]	solubility (Solubility (Test F)) [µM]	Test A Sinf (human RXFP1) [%]	EC50 (human RXFP1) [µM]
CC1(CNC(=O)[C@H]2[C@@H]3CC[C@@H](C3)[C@H]2NC(=O)c2cc(O[C@H]3CC[C@@](C)(C(=O)O)CC3)c(F)cc2F)CCC1 [Example 393, (1S,4s)-4-(2,4-Difluoro-5-(((1S,2R,3S,4R)-3-(((1-methylcyclobutyl)methyl)carbamoyl)bicyclo[2.2.1]heptan-2-yl)carbamoyl)phenoxy)-1-methylcyclohexane-1-carboxylic acid]	1.4	37	6.7	12	53 (≈ 28.2 µg/mL)	–	–
COc1cc(C#N)c(O[C@H]2CC[C@@](C)(C(=O)O)CC2)cc1C(=O)N[C@@H]1[C@H]2CC[C@H](C2)[C@@H]1C(=O)NC12CC(F)(C1)C2 [Example 622]	17	< 5.1	1.7	11	> 860	–	–
COc1cc(F)c(-c2ccc(CCC(N)(CO)CO)c(F)c2)cc1C(=O)N[C@@H]1[C@H]2CC[C@H](C2)[C@@H]1C(=O)Nc1cccc(S(=O)(=O)C(F)(F)F)c1 [Example 266, (1R,2S,3R,4S)-3-(4′-(3-Amino-4-hydroxy-3-(hydroxymethyl)butyl)-3′,6-difluoro-4-methoxy-[1,1′-biphenyl]-3-carboxamido)-N-(3-((trifluoromethyl)sulfonyl)phenyl)bicyclo[2.2.1]heptane-2-carboxamide]	<0.34	68	9.4	8.8	–	103	0.11
COc1cc(C(F)F)c(O[C@H]2CC[C@@](C)(C(=O)O)CC2)cc1C(=O)N[C@@H]1[C@H]2CC[C@H](C2)[C@@H]1C(=O)NCC1(C)CCC1 [Example 373]	3.9	23	5.1	16	1000 (≈ 577 µg/mL)	–	–
CC1(CNC(=O)[C@H]2[C@@H]3CC[C@@H](C3)[C@H]2NC(=O)c2cc(O[C@H]3CC[C@@](C)(C(=O)O)CC3)c(F)cc2OC(F)F)CCC1 [Example 207, (1S,4s)-4-(4-(Difluoromethoxy)-2-fluoro-5-(((1S,2R,3S,4R)-3-(((1-methylcyclobutyl)methyl)carbamoyl)bicyclo[2.2.1]heptan-2-yl)carbamoyl)phenoxy)-1-methylcyclohexane-1-carboxylic acid]	3.5	34	26	10	560 (≈ 325 µg/mL)	–	–
COc1cc(F)c(O[C@H]2CC[C@@](CO)(C(=O)O)CC2)cc1C(=O)N[C@@H]1[C@H]2CC[C@H](C2)[C@@H]1C(=O)NCC1(C)CCC1 [Example 364]	11	< 5.1	6.2	19	> 1000	–	–
COc1cc(Cl)c(O[C@H]2CC[C@@](C)(C(=O)O)CC2)cc1C(=O)N[C@@H]1[C@H]2CC[C@H](C2)[C@@H]1C(=O)NCC1(C)CCC1 [Example 392, (1S,4s)-4-(2-Chloro-4-methoxy-5-(((1S,2R,3S,4R)-3-(((1-methylcyclobutyl)methyl)carbamoyl)bicyclo[2.2.1]heptan-2-yl)carbamoyl)phenoxy)-1-methylcyclohexane-1-carboxylic acid]	2.7	36	4.7	15	470 (≈ 264 µg/mL)	–	–
COc1cc(C#N)c(O[C@H]2CC[C@@](C)(C(=O)O)CC2)cc1C(=O)N[C@@H]1[C@H]2CC[C@H](C2)[C@@H]1C(=O)NCC1(C)CCC1 [Example 592, (1S,4s)-4-(2-cyano-4-methoxy-5-(((1S,2R,3S,4R)-3-(((1-methylcyclobutyl)methyl)carbamoyl)bicyclo[2.2.1]heptan-2-yl)carbamoyl)phenoxy)-1-methylcyclohexane-1-carboxylic acid]	6.3	19	5.6	18	> 890	–	–
COc1cc(F)c(O[C@H]2CC[C@@](C)(C(=O)O)CC2)cc1C(=O)N[C@@H]1[C@H]2CC[C@H](C2)[C@@H]1C(=O)N[C@H](C)C(C)(C)C [Example 36, (1S,4s)-4-(5-(((1S,2R,3S,4R)-3-(((R)-3,3-Dimethylbutan-2-yl)carbamoyl)bicyclo[2.2.1]heptan-2-yl)carbamoyl)-2-fluoro-4-methoxyphenoxy)-1-methylcyclohexane-1-carboxylic acid]	6.9	33	5.8	7.2	22 (≈ 12 µg/mL)	–	–
COc1cc(F)c(O[C@H]2CC[C@@](C)(C(=O)O)CC2)cc1C(=O)N[C@@H]1[C@H]2CC[C@H](C2)[C@@H]1C(=O)NCC(C)(C)C(F)(F)F [Example 38, (1S,4s)-4-(2-Fluoro-4-methoxy-5-(((1S,2R,3S,4R)-3-((3,3,3-trifluoro-2,2-dimethylpropyl)carbamoyl)bicyclo[2.2.1]heptan-2-yl)carbamoyl)phenoxy)-1-methylcyclohexane-1-carboxylic acid]	5.6	13	4.2	9	38 (≈ 22.3 µg/mL)	–	–
COc1cc(F)c(O[C@H]2CC[C@@](C)(C(=O)O)CC2)cc1C(=O)N[C@@H]1CCC[C@@H]1C(=O)Nc1ccc(F)c(S(F)(F)(F)(F)F)c1 [Example 352]	0.26	–	13	38	340 (≈ 223 µg/mL)	105	0.003
